Values of other authors in patent US20180080913A1, “SCREENING METHOD FOR MULTI-TARGET DRUGS AND/OR DRUG COMBINATIONS” (Wuhan Bio-links Technology Co., Ltd, priority 2015, published 2018).

System: human gastric barcinoma cell line MGC803
Details: combination of d-limonene and berberine, active ingredients of Zuo Gui Wan

Compound: COc1ccc2cc3[n+](cc2c1OC)CCc1cc2c(cc1-3)OCO2 [berberine]
- promotion of gastric cancer cell apoptosis: synergistically promote gastric cancer cell apoptosis

Compound: C=C(C)[C@H]1CC=C(C)CC1 [d-limonene]
- promotion of gastric cancer cell apoptosis: synergistically promote gastric cancer cell apoptosis
